The target in one assay is T1, human PI3Kα protein (Homo sapiens, UniProt P42336).
T1 construct: purchased Carna Biosciences, Inc; host or cells: baculovirus expression system
Nature of the assay: PI3Kα enzyme assay (ADP-Glo). In kind it is biochemical. The conditions noted are these: read-out: PI3Kα enzyme inhibitory activity. In short, it runs like this:
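Biotinylated human PI3Kα (baculovirus-expressed, 4.5 nmol/L) pre-incubated 15 min with compound in Tris-HCl pH 7.5, MgCl2, BSA; reaction 60 min at 25° C with 50 μmol/L PIP2 and 100 μmol/L ATP final. ADP quantified by ADP-Glo luminescence; IC50 calculated.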

In assay [1] the target is T2, GST fusion human ERK2 protein (Homo sapiens, UniProt P28482).
T2 construct: purchased Carna Biosciences, Inc; host or cells: E. coli expression system
T2 sequence (P28482 whole entry, the tested form may be a part): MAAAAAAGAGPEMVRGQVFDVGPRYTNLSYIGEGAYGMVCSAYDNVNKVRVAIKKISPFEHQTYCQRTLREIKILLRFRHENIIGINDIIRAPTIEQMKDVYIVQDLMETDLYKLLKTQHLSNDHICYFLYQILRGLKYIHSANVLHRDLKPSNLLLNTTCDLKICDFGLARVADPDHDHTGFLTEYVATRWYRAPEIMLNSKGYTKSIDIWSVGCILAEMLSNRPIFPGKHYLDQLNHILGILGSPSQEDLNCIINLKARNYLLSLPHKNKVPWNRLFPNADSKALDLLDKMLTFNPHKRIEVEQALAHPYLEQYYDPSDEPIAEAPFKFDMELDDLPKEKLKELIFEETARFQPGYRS
The assay is described as follows: ERK2 enzyme assay (2). In kind it is biochemical. The settings on record: ERK2 enzyme assay (2); read-out: ERK2 enzyme inhibitory activity (2). In short, it runs like this: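 GST-tagged human ERK2 expressed in E. coli (1.25 nmol/L) was preincubated with compound for 15 min at room temperature in pH 7.5 Hepes buffer with MgCl2, DTT and Brij35. Reaction with FL-Peptide 8 (final 4.25 μmol/L) and ATP (final 1 mmol/L) ran 120 min at 25 °C; EDTA stopped it, and phosphorylated peptide was quantified by mobility-shift separation to derive IC50.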

The subject of another assay is CHO-K1 cells. The assay is described as follows: CHO cell toxicity test. The class given is cell-based, Chinese hamster. The conditions noted are these: Cricetulus griseus; CHO-K1 cells, 24 hours culture with compound, CellTiter-Glo; read-out: IC50 value (concentration at which the number of viable cells was suppressed to 50% or less). On the procedure:
In a CHO cell toxicity test, the following was used.
Cell: CHO-K1 cells (derived from Chinese hamster ovary) Test medium: F-12 MEDIUM+FCS (manufactured by Biowest) having a final concentration of 2%
Detection reagent: CELLTITER-GLO™ LUMINESCENT CELL VIABILITY ASSAY (trade name, manufactured by PROMEGA Corporation)
The CHO-K1 cells were seeded in a 96-well microplate for culture at 5,000 cells/well, and cultured in a CO2 incubator (37° C.) for 24 hours. An evaluation compound (final concentration: from 25.00 μmol/L to 0.20 μmol/L, common ratio: […]) was added thereto, followed by culturing for 24 hours, and the number of viable cells was calculated from emission intensity by CELLTITER-GLO™ (trade name, manufactured by PROMEGA Corporation). In the measurement of the emission intensity, VARIOSKAN FLASH (manufactured by Thermo Fisher Scientific Inc.) was used.
Inhibition ratio (%)=100−(A/B)×100
A: Emission intensity in the presence of a test compound
B: Emission intensity in the absence of a test compound
(In general: Cellular ATP, detected with luciferase, serves as a proxy for viable cell number.)

Where only a bound is given, the exact number is not on record here.

T1 sequence (P42336 whole entry): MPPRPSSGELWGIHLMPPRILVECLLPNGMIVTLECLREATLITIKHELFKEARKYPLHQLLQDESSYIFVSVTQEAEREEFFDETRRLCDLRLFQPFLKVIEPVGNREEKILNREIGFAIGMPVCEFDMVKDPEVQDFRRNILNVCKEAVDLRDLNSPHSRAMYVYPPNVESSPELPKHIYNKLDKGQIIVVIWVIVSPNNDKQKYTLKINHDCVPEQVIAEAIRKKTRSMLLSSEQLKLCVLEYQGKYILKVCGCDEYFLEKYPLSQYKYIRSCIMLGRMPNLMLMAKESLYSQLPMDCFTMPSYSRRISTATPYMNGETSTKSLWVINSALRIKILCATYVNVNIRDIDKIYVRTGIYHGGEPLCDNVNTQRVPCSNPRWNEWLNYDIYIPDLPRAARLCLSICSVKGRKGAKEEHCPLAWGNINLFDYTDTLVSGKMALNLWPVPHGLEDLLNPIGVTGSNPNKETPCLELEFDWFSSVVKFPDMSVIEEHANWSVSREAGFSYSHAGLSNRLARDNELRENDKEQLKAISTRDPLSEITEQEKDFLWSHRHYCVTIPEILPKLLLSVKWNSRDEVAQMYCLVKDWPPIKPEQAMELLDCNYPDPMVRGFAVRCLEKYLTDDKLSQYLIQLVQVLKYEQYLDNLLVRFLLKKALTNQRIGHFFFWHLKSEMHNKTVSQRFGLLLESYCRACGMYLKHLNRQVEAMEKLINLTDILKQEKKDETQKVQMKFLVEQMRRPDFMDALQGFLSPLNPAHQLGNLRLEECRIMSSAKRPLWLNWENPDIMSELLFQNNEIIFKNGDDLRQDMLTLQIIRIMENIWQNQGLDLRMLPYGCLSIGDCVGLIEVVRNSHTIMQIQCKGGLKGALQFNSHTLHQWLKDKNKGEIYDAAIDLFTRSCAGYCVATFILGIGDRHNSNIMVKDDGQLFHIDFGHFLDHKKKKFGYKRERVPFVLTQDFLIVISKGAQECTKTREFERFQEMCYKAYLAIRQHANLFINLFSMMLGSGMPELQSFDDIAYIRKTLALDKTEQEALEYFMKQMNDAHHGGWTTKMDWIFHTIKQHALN
T1 sequence (P27986 whole entry partner): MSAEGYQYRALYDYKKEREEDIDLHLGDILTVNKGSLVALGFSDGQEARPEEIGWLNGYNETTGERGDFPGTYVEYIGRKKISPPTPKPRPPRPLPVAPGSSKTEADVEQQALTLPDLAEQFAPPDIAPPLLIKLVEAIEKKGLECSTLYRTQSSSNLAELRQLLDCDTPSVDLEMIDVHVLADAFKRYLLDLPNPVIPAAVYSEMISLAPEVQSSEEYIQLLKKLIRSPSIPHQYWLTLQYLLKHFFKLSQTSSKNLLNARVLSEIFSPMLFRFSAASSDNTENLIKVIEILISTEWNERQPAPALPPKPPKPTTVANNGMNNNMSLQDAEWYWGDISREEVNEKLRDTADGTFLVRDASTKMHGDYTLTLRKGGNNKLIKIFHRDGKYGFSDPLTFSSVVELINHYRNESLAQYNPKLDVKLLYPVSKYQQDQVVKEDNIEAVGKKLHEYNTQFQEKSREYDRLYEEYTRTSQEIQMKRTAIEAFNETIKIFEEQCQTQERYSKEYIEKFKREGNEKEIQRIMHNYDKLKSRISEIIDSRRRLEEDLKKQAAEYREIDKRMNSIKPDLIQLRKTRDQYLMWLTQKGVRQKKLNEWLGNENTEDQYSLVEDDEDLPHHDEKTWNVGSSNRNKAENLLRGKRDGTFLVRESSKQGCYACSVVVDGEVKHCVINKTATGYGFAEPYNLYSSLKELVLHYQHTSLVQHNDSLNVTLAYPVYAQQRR

As for `CC(C)c1cnnc(Nc2ccc3ncc(-c4cnn(CCCN5CCO[C@H](C)C5)c4)cc3n2)c1` [Example 0645], the IC50 at human PI3Kα protein is less than 1000 nM; in assay [1] it was less than 1000 nM; in the assay on CHO-K1 cells it was no less than 25000 nM.
For `CC(C)c1cnnc(Nc2ccc3ncc(-c4cnn(CCCN5CCOC[C@H]5C)c4)cc3n2)c1` [Example 0649], the IC50 was less than 1000 nM at human PI3Kα protein, less than 1000 nM in assay [1] and no less than 25000 nM in the assay with CHO-K1 cells.
With `CC(C)c1cnnc(Nc2ccc3ncc(-c4cnn(CCCN5CCOC[C@@H]5C)c4)cc3n2)c1` [Example 0650], the IC50 was less than 1000 nM at human PI3Kα protein, less than 1000 nM in assay [1] and no less than 25000 nM in the assay with CHO-K1 cells.
In the case of `CC(C)c1cnnc(Nc2ccc3ncc(-c4cnn(CCCN5C6CCC5COC6)c4)cc3n2)c1` [Example 0651], the IC50 is less than 1000 nM on human PI3Kα protein, less than 1000 nM in assay [1] and no less than 25000 nM in the assay on CHO-K1 cells.
Turning to `CC(C)c1cnnc(Nc2ccc3ncc(-c4cnn(CCCN5CC6CCC(C5)O6)c4)cc3n2)c1` [Example 0653, 7-(1-(3-(8-Oxa-3-azabicyclo[3.2.1]octan-3-yl)propyl)-1H-pyrazol-4-yl)-N-(5-isopropylpyridazin-3-yl)-1,5-naphthyridine-2-amine], the values for the IC50 (at human PI3Kα protein; in assay [1]; in the assay with CHO-K1 cells) were less than 1000 nM, less than 1000 nM and no less than 25000 nM, respectively.
As to `CC(C)c1cnnc(Nc2ccc3ncc(-c4cnn(CCCN5CCOCC5(C)C)c4)cc3n2)c1` [Example 0657], the IC50 on human PI3Kα protein was less than 1000 nM; in assay [1], less than 1000 nM; in the assay with CHO-K1 cells, no less than 25000 nM.
For `COCCN(C)CCCn1cc(-c2cnc3ccc(Nc4cc(C(C)C)cnn4)nc3c2)cn1` [Example 0659], the results for the IC50 (at human PI3Kα protein; in assay [1]; in the assay with CHO-K1 cells) were less than 1000 nM, less than 1000 nM and no less than 25000 nM, respectively.
Regarding `CC(C)c1cnnc(Nc2ccc3ncc(-c4cnn(CCCN5CCCOCC5)c4)cc3n2)c1` [Example 0665], the results for the IC50 (on human PI3Kα protein; in assay [1]; in the assay on CHO-K1 cells) were less than 1000 nM, less than 1000 nM and no less than 25000 nM, respectively.
For the compound `CC(C)c1cnnc(Nc2ccc3ncc(-c4cnn(CCCN5CCOC(CO)C5)c4)cc3n2)c1` (stereo not drawn) [Example 0678], the IC50 at human PI3Kα protein was less than 1000 nM; in assay [1], less than 1000 nM; in the assay with CHO-K1 cells, no less than 25000 nM.
As to `COCC1CN(CCCn2cc(-c3cnc4ccc(Nc5cc(C(C)C)cnn5)nc4c3)cn2)CCO1` (stereo not drawn) [Example 0679], the IC50 at human PI3Kα protein is less than 1000 nM; in assay [1], less than 1000 nM; in the assay on CHO-K1 cells it was no less than 25000 nM.
In the case of `CC(=O)NC1CN(CCCn2cc(-c3cnc4ccc(Nc5cc(C(C)C)cnn5)nc4c3)cn2)C1` [Example 0682, N-(1-(3-(4-(6-((5-isopropylpyridazin-3-yl)amino)-1,5-naphthyridin-3-yl)-1H-pyrazol-1-yl)propyl)azetidin-3-yl)acetamide], the IC50 at human PI3Kα protein is less than 1000 nM; in assay [1], less than 1000 nM; in the assay with CHO-K1 cells, no less than 25000 nM.
Regarding `CC(C)c1cnnc(Nc2ccc3ncc(-c4cnn(CCCN5CCOCC5CO)c4)cc3n2)c1` (stereo not drawn) [Example 0685], the IC50 on human PI3Kα protein was less than 1000 nM; in assay [1] it was less than 1000 nM; with CHO-K1 cells it was no less than 25000 nM.
For the compound `CC(C)c1cnnc(Nc2ccc3ncc(-c4cnn(CCCN5CC(C#N)C5)c4)cc3n2)c1` [Example 0686], the values for the IC50 (at human PI3Kα protein; in assay [1]; with CHO-K1 cells) were less than 1000 nM, less than 1000 nM and no less than 25000 nM, respectively.
In the case of `CNC(=O)C1CN(CCCn2cc(-c3cnc4ccc(Nc5cc(C(C)C)cnn5)nc4c3)cn2)C1` [Example 0687, 1-(3-(4-(6-((5-Isopropylpyridazin-3-yl)amino)-1,5-naphthyridin-3-yl)-1H-pyrazol-1-yl)propyl)-N-methylazetidine-3-carboxamide], the IC50 on human PI3Kα protein was less than 1000 nM; in assay [1], less than 1000 nM; in the assay with CHO-K1 cells, no less than 25000 nM.
For the compound `CC(C)c1cnnc(Nc2ccc3ncc(-c4cnn(CCCN5CC(C(=O)N(C)C)C5)c4)cc3n2)c1` [Example 0688], the IC50 was less than 1000 nM on human PI3Kα protein, less than 1000 nM in assay [1] and no less than 25000 nM with CHO-K1 cells.
As to `COCC1COCCN1CCCn1cc(-c2cnc3ccc(Nc4cc(C(C)C)cnn4)nc3c2)cn1` (stereo not drawn) [Example 0691], the IC50 was less than 1000 nM at human PI3Kα protein, less than 1000 nM in assay [1] and no less than 25000 nM in the assay on CHO-K1 cells.
For the compound `CC(C)c1cnnc(Nc2ccc3ncc(-c4cnn(CCCN5CC(F)C5)c4)cc3n2)c1` [Example 0694, 7-(1-(3-(3-Fluoroazetidin-1-yl)propyl)-1H-pyrazol-4-yl)-N-(5-isopropylpyridazin-3-yl)-1,5-naphthyridine-2-amine], the IC50 at human PI3Kα protein was less than 1000 nM; in assay [1] it was less than 1000 nM; with CHO-K1 cells, no less than 25000 nM.
As for `CC(C)c1cnnc(Nc2ccc3ncc(-c4cnn(CCCN5CC(N)C5)c4)cc3n2)c1` [Example 0695, 7-(1-(3-(3-aminoazetidin-1-yl)propyl)-1H-pyrazol-4-yl)-N-(5-isopropylpyridazin-3-yl)-1,5-naphthyridine-2-amine], the IC50 on human PI3Kα protein is less than 1000 nM; in assay [1], less than 1000 nM; with CHO-K1 cells, no less than 25000 nM.
On to `CC(C)c1cnnc(Nc2ccc3ncc(-c4cnn(CCCN5CC(NS(C)(=O)=O)C5)c4)cc3n2)c1` [Example 0697], for which the IC50 at human PI3Kα protein is less than 1000 nM; in assay [1], less than 1000 nM; in the assay on CHO-K1 cells, no less than 25000 nM.
For the compound `CC(C)c1cnnc(Nc2ccc3ncc(-c4cnn(Cc5cccc(N)c5)c4)cc3n2)c1` [Example 0712, 7-(1-(3-Aminobenzyl)-1H-pyrazol-4-yl)-N-(5-isopropylpyridazin-3-yl)-1,5-naphthyridine-2-amine], the IC50 on human PI3Kα protein is less than 1000 nM; in assay [1], less than 1000 nM; in the assay with CHO-K1 cells, no less than 25000 nM.
Take `CC(C)c1cnnc(Nc2ccc3ncc(-c4cnn(CCCN5CCN(C)C(=O)C5)c4)cc3n2)c1` [Example 0723, 4-(3-(4-(6-((5-isopropylpyridazin-3-yl)amino)-1,5-naphthyridin-3-yl)-1H-pyrazol-1-yl)propyl)-1-methylpiperazin-2-one]: the IC50 at human PI3Kα protein was less than 1000 nM; in assay [1], less than 1000 nM; with CHO-K1 cells, no less than 25000 nM.
As to `CC(C)c1cnnc(Nc2ccc3ncc(-c4cnn(CC(O)CN5CCCC5)c4)cc3n2)c1` (stereo not drawn) [Example 0724, 1-(4-(6-((5-Isopropylpyridazin-3-yl)amino)-1,5-naphthyridin-3-yl)-1H-pyrazol-1-yl)-3-(pyrrolidin-1-yl)propan-2-ol], the IC50 was less than 1000 nM at human PI3Kα protein, less than 1000 nM in assay [1] and no less than 25000 nM in the assay with CHO-K1 cells.
As for `COC(CN1CCCC1)Cn1cc(-c2cnc3ccc(Nc4cc(C(C)C)cnn4)nc3c2)cn1` (stereo not drawn) [Example 0725, N-(5-isopropylpyridazin-3-yl)-7-(1-(2-methoxy-3-(pyrrolidin-1-yl)propyl)-1H-pyrazol-4-yl)-1,5-naphthyridine-2-amine], the IC50 was less than 1000 nM on human PI3Kα protein, less than 1000 nM in assay [1] and no less than 25000 nM with CHO-K1 cells.
As for `CC(C)c1cnnc(Nc2ccc3ncc(-c4cnn(CC(F)CN5CCOCC5)c4)cc3n2)c1` (stereo not drawn) [Example 0733], the IC50 is less than 1000 nM at human PI3Kα protein, less than 1000 nM in assay [1] and no less than 25000 nM in the assay with CHO-K1 cells.
For `Cc1ncccc1-c1nn(C)cc1-c1cnc2ccc(Nc3cc(C(C)C)cnn3)nc2c1` [Example 0737], the IC50 was less than 1000 nM at human PI3Kα protein, less than 1000 nM in assay [1] and no less than 25000 nM with CHO-K1 cells.
Take `Cc1cc(-c2nn(C)cc2-c2cnc3ccc(Nc4cc(C(C)C)cnn4)nc3c2)ccn1` [Example 0738]: the IC50 on human PI3Kα protein is less than 1000 nM; in assay [1] it was less than 1000 nM; in the assay on CHO-K1 cells, no less than 25000 nM.
`CCc1cnnc(Nc2ccc3ncc(-c4cn(C)nc4C)cc3n2)c1` [Example 0756, 7-(1,3-Dimethyl-1H-pyrazol-4-yl)-N-(5-ethylpyridazin-3-yl)-1,5-naphthyridine-2-amine]: the IC50 at human PI3Kα protein is less than 1000 nM; in assay [1], less than 1000 nM; in the assay with CHO-K1 cells it was no less than 25000 nM.
For `Cc1nn(C)cc1-c1cnc2ccc(Nc3cc(C(C)C)cnn3)nc2c1` [Example 0757, 7-(1,3-dimethyl-1H-pyrazol-4-yl)-N-(5-isopropylpyridazin-3-yl)-1,5-naphthyridine-2-amine], the IC50 on human PI3Kα protein was less than 1000 nM; in assay [1], less than 1000 nM; in the assay with CHO-K1 cells, no less than 25000 nM.
For `CCc1nn(C)cc1-c1cnc2ccc(Nc3cc(C(C)C)cnn3)nc2c1` [Example 0761], the IC50 was less than 1000 nM at human PI3Kα protein, less than 1000 nM in assay [1] and no less than 25000 nM in the assay on CHO-K1 cells.
As to `CC(C)c1cnnc(Nc2ccc3ncc(-c4cn(C)nc4CC4CCOCC4)cc3n2)c1` [Example 0773], the values for the IC50 (on human PI3Kα protein; in assay [1]; in the assay on CHO-K1 cells) were less than 1000 nM, less than 1000 nM and no less than 25000 nM, respectively.
